Patent US20250230129A1, “POLYAMIDE COMPOUNDS, METHOD FOR PREPARING SAME, AND MEDICAL USE THEREOF” (priority 2022, published 2025)
pEC50, pKi: −log10 of the molar value. Where two headings read alike, the source gives them in different places. Square brackets hold non-standard residues; d marks the D form. Peptide text beside a SMILES is read from it. * marks the point of attachment. Piperidin1yl(4-NH2,4-COOH) = NC1(C(=O)O)CCN(*)CC1; dPhLac = O=C(O)[C@H](O)Cc1ccccc1; X4 = COC(=O)NC1CCN(*)CC1

Key:
δ receptor = δ receptor (Homo sapiens (Human), UniProt P41143); assay: Competitive delta receptor binding assay (3H-DADLE)
[1] = target: κ-opioid receptor (Kappa) (Homo sapiens (Human), UniProt P41145); assay: In vitro functional assay, HTRF cAMP-Gi in CHO-K1-OPRK1 cells; assay type: cell-based
κ receptor = κ receptor (Homo sapiens (Human), UniProt P41145); assay: Competitive Kappa receptor binding assay (3H-U69593)
μ receptor = μ receptor (Homo sapiens (Human), UniProt P35372); assay: μ receptor affinity assay (3H-DAMGO); assay type: binding
[2] = PK and blood-brain barrier permeability in mice; assay type: in vivo; details: male ICR mice, intravenous 1 mg/kg
Procedure: The compounds of the present disclosure were investigated for pharmacokinetic characteristics and blood-brain barrier permeability in mice.
Healthy male ICR mice were randomly grouped, 6 animals per group. For each test compound, 3 groups of animals were used. The first group of animals was used for collecting blood and brain 5 min after the administration, and the second group of animals and the third group of animals were used for cross blood collection at subsequent time points; each test compound was intravenously administered (1 mg/kg) to corresponding groups of mice, and blood sampling via submaxillary veins of the mice was carried out at different time points. Drug contents in plasma and brain tissues at different time points were measured by an LC-MS/MS method, the brain-to-blood ratio B/P was calculated by using EXCEL software, and pharmacokinetic parameters were calculated by using DAS3.0 software.

[3] = CHO-K1-delta membranes, 3H-DADLE 4 nM, read-out: δ receptor Ki
[4] = CHO-K1-OPRK1 cells, cAMP, 1 μM Forskolin, read-out: In vitro agonistic effects on k-opioid receptors EC50
[5] = CHO-K1-Kappa membranes, 3H-U69593 2 nM, read-out: κ receptor Ki
[6] = CHO-K1-μ membranes, 3H-DAMGO 2 nM, read-out: μ receptor Ki
[7] = read-out: In vitro agonistic effects on k-opioid receptors EC50

Molecule | pKi (δ receptor) | pEC50 [1] | pKi (κ receptor) | pKi (μ receptor) | also measured
CN=S1(=O)CCN(C(=O)[C@@H](CCCCN)NC(=O)[C@@H](CC(C)C)NC(=O)[C@@H](Cc2ccccc2)NC(=O)N(CCN)Cc2ccccc2)CC1 [Compound 20] | < 6.00 | 9.28 | 9.24 | < 6.00 | –
CC(C)C[C@@H](NC(=O)[C@@H](Cc1ccccc1)NC(=O)[C@H](O)Cc1ccccc1)C(=O)N[C@H](CCCCN)C(=O)N1CCC(N)(C(=O)O)CC1 [Compound 3] (H-[dPhLac][dF][dL][dK]-{Piperidin1yl(4-NH2,4-COOH)}) | < 6.00 | – | 8.48 | < 6.00 | –
CC(C)C[C@@H](NC(=O)[C@@H](Cc1ccccc1)NC(=O)N(CCN)Cc1ccccc1)C(=O)N[C@H](CCCCN)C(=O)N1CCC2(CC1)OC(=O)Nc1ncccc12 [Compound 22] | – | – | – | – | pKi (δ receptor; [3]): < 6.00; pEC50 [1, 4]: 9.44; pKi (κ receptor; [5]): 9.46; pKi (μ receptor; [6]): < 6.00
CC(=O)N1CCN(C(=O)[C@@H](CCCCN)NC(=O)[C@@H](CC(C)C)NC(=O)[C@@H](Cc2ccccc2)NC(=O)N(CCN)Cc2ccccc2)CC1 [Compound 47] | < 6.00 | 9.62 | 9.31 | < 6.00 | –
CC(C)C[C@@H](NC(=O)[C@@H](Cc1ccccc1)NC(=O)N(CCN)Cc1cncnc1)C(=O)C[C@H](CCCCN)C(=O)N1CCC(N)(C(=O)O)CC1 [Compound 19] | – | – | – | – | pKi (δ receptor; read-out: δ receptor Ki): < 6.00; pEC50 [1, 7]: 9.06; pKi (κ receptor; read-out: κ receptor Ki): 9.05; pKi (μ receptor; read-out: μ receptor Ki): < 6.00
CC(C)C[C@@H](NC(=O)[C@@H](Cc1ccccc1)NC(=O)N(C)C(CN)c1ccccc1)C(=O)N[C@H](CCCCN)C(=O)N1CCOCC1 (stereo partly drawn) [Compound 37] | < 6.00 | 9.41 | 9.39 | < 6.00 | –
CNC(=O)NC1CCN(C(=O)[C@@H](CCCCN)NC(=O)[C@@H](CC(C)C)NC(=O)[C@@H](Cc2ccccc2)NC(=O)N(CCN)Cc2ccccc2)CC1 [Compound 17] | < 6.00 | 9.52 | 9.36 | < 6.00 | –
CC(C)C[C@@H](NC(=O)[C@@H](Cc1ccccc1)NC(=O)N(C)C(CN)c1ccccc1)C(=O)N[C@H](CCCCN)C(=O)N1CCC2(CC1)CNC(=O)c1ncccc12 (stereo partly drawn) [Compound 32] | < 6.00 | 9.19 | 9.24 | < 6.00 | –
CC(C)C[C@@H](NC(=O)[C@@H](Cc1ccccc1)NC(=O)N(CCN)Cc1cccnc1)C(=O)C[C@H](CCCCN)C(=O)N1CCC(N)(C(=O)O)CC1 [Compound 18] | – | – | – | – | pKi (δ receptor; read-out: δ receptor Ki): < 6.00; pEC50 [1, 7]: 9.74; pKi (κ receptor; read-out: κ receptor Ki): 9.68; pKi (μ receptor; read-out: μ receptor Ki): < 6.00
CC(C)C[C@@H](NC(=O)[C@@H](Cc1ccccc1)NC(=O)N(CCN)Cc1ccc(F)cc1)C(=O)C[C@H](CCCCN)C(=O)N1CCC(N)(C(=O)O)CC1 [Compound 50] | – | – | – | – | pKi (δ receptor; read-out: δ receptor Ki): < 6.00; pEC50 [1, 7]: 9.37; pKi (κ receptor; read-out: κ receptor Ki): 9.57; pKi (μ receptor; read-out: μ receptor Ki): < 6.00
COC(=O)N=S1(=O)CCN(C(=O)[C@@H](CCCCN)NC(=O)[C@@H](CC(C)C)NC(=O)[C@@H](Cc2ccccc2)NC(=O)[C@H](N)Cc2ccccc2)CC1 [Compound 4B] | < 6.00 | 9.19 | 8.73 | < 6.00 | –
CC(C)C[C@@H](NC(=O)[C@@H](Cc1ccccc1)NC(=O)N(CCN)Cc1ccccc1)C(=O)N[C@H](CCCCN)C(=O)N1CCC(F)(C(=O)O)CC1 [Compound 34] | < 6.00 | 9.15 | 9.22 | < 6.00 | –
CC(=O)N(CCCN)C1CCN(C(=O)[C@@H](C)CC(=O)[C@@H](CC(C)C)NC(=O)[C@H](CC(=O)N(CCN)Cc2ccccc2)Cc2ccccc2)CC1 [Compound 44] | – | – | – | – | pKi (δ receptor; read-out: δ receptor Ki): < 6.00; pEC50 [1, 7]: 10.05; pKi (κ receptor; read-out: κ receptor Ki): 9.26; pKi (μ receptor; read-out: μ receptor Ki): < 6.00
CC(=O)NC1CCN(C(=O)[C@@H](CCCCN)NC(=O)[C@@H](CC(C)C)NC(=O)[C@@H](Cc2ccccc2)NC(=O)N(CCN)Cc2ccccc2)CC1 [Compound 45] | < 6.00 | 9.80 | 9.28 | < 6.00 | –
CC(C)C[C@@H](NC(=O)[C@@H](Cc1ccccc1)NC(=O)N(C)C(CN)c1ccccc1)C(=O)N[C@H](CCCCN)C(=O)N1CCS(=O)(=O)CC1 (stereo partly drawn) [Compound 36] | < 6.00 | 9.46 | 9.01 | < 6.00 | –
CC(C)C[C@@H](NC(=O)[C@@H](Cc1ccccc1)NC(=O)N(CCN)Cc1ccccc1)C(=O)N[C@H](CCCCN)C(=O)N1CCOCC1 [Compound 39] | < 6.00 | 9.46 | 9.57 | < 6.00 | –

Molecule | pKi (δ receptor) | pEC50 [1] | pKi (κ receptor) | pKi (μ receptor) | also measured
COC(=O)NC1CCN(C(=O)[C@@H](C)NC(=O)[C@@H](CC(C)C)NC(=O)[C@@H](Cc2ccccc2)NC(=O)[C@H](N)Cc2ccccc2)CC1 [Compound 12A] (H-[dF][dF][dL][dA]-X4) | < 6.00 | 10.15 | 9.47 | < 6.00 | –
CC(C)C[C@@H](NC(=O)[C@@H](Cc1ccccc1)NC(=O)N(C)C(CN)c1ccccc1)C(=O)N[C@H](CCCCN)C(=O)N1CCC(NC(=O)OC2CCOCC2)CC1 (stereo partly drawn) [Compound 33] | < 6.00 | 9.09 | 9.25 | < 6.00 | –
CNCCN(Cc1ccccc1)C(=O)N[C@H](Cc1ccccc1)C(=O)N[C@H](CC(C)C)C(=O)C[C@H](CCCCN)C(=O)N1CCC(N)(C(=O)O)CC1 [Compound 28] | – | – | – | – | pKi (δ receptor; read-out: δ receptor Ki): < 6.00; pKi (κ receptor; read-out: κ receptor Ki): 8.48; pKi (μ receptor; read-out: μ receptor Ki): < 6.00
CC(C)C[C@@H](NC(=O)[C@@H](Cc1ccccc1)NC(=O)N(CCN)Cc1ccccc1)C(=O)N[C@H](CCCCN)C(=O)N1CCNCC1 [Compound 40] | < 6.00 | 9.89 | 9.24 | < 6.00 | –
COC(=O)C1(N)CCN(C(=O)[C@@H](CCCCN)NC(=O)[C@@H](CC(C)C)NC(=O)[C@@H](Cc2ccccc2)NC(=O)N(C)C(CN)c2ccccc2)CC1 (stereo partly drawn) [Compound 14] | < 6.00 | 8.09 | 8.96 | < 6.00 | –
(2R)-2-[(2R)-2-{[(2-amino-1-phenylethyl)(methyl)carbamoyl)amino}-3-phenylpropionylamino]-N-[(2R)-6-amino-1-{4-[(methylcarbamoyl)amino]piperidin-1-yl}-1-oxohexyl-2-yl]-4-methylpentanamide [Compound 8] | – | – | – | – | pKi (δ receptor; read-out: δ receptor Ki): < 6.00; pEC50 [1, 7]: 9.05; pKi (κ receptor; read-out: κ receptor Ki): 10.05; pKi (μ receptor; read-out: μ receptor Ki): < 6.00
CNS(=O)(=O)NC1CCN(C(=O)[C@@H](CCCCN)NC(=O)[C@@H](CC(C)C)NC(=O)[C@@H](Cc2ccccc2)NC(=O)N(CCN)Cc2ccccc2)CC1 [Compound 26] | – | – | – | – | pKi (δ receptor; [3]): < 6.00; pEC50 [1, 4]: 9.60; pKi (κ receptor; [5]): 9.51; pKi (μ receptor; [6]): < 6.00
COC(=O)N1CCN(C(=O)[C@@H](CCCCN)NC(=O)[C@@H](CC(C)C)NC(=O)[C@@H](Cc2ccccc2)NC(=O)N(CCN)Cc2ccccc2)CC1 [Compound 46] | < 6.00 | 9.66 | 9.54 | < 6.00 | –
CC(C)C[C@@H](NC(=O)[C@@H](Cc1ccccc1)NC(=O)N(CCN)Cc1ccccc1)C(=O)N[C@H](CCCCN)C(=O)N1CCC(NC(=O)OC2CCOCC2)CC1 [Compound 24] | < 6.00 | 9.57 | 9.44 | < 6.00 | –
CC(C)C[C@@H](NC(=O)[C@@H](Cc1ccccc1)NC(=O)C[C@H](N)c1ccccc1)C(=O)N[C@H](CCCCN)C(=O)N1CCC(N)(C(=O)O)CC1 [Compound 4-100, 4-amino-1-[(2R)-6-amino-2-[(2R)-2-[(2R)-2-[(3S)-3-amino-3-phenylpropionylamino]-3-phenylpropionylamino]-4-methylpentanoylamino]hexanoyl]piperidine-4-carboxylic acid] | < 6.00 | – | 7.22 | < 6.00 | –
CC(C)C[C@@H](NC(=O)[C@@H](Cc1ccccc1)NC(=O)[C@H](N)Cc1ccccc1)C(=O)N[C@H](CCCCN)C(=O)N1CCC(N)(C(=O)O)CC1 [CR845, D-Phe-D-Phe-D-Leu-D-Lys-[ω(4-aminopiperidine-4-carboxylic acid)]-OH, reference compound] | – | – | – | – | B/P (brain-to-blood ratio) ([2]; blood and brain 5 min after administration): 0.015; AUC(0-inf) ([2]; mouse, plasma): 653 ng·h/mL; Vd ([2]; mouse, plasma): 0.6 L/kg; clearance ([2]; mouse, plasma): 27 mL/min/kg; half-life ([2]; mouse, plasma, read-out: t½ (converted)): 15.6 min; Cmax ([2]; mouse, plasma): 1620 ng/mL
COC(=O)NC1CCN(C(=O)[C@@H](C)NC(=O)[C@@H](CC(C)C)NC(=O)[C@@H](Cc2ccccc2)NC(=O)N(CCN)Cc2ccccc2)CC1 [Compound 42] | < 6.00 | 9.34 | 9.33 | < 6.00 | –
CC(C)C[C@@H](NC(=O)[C@@H](Cc1ccccc1)NC(=O)N(C)C(CN)c1ccccc1)C(=O)C[C@H](CCCCN)C(=O)N1CCC(N)(C(=O)OC(C)C)CC1 (stereo partly drawn) [Compound 15] | – | – | – | – | pKi (δ receptor; read-out: δ receptor Ki): < 6.00; pEC50 [1, 7]: 9.20; pKi (κ receptor; read-out: κ receptor Ki): 9.08; pKi (μ receptor; read-out: μ receptor Ki): < 6.00
CC(C)C[C@@H](NC(=O)[C@@H](Cc1ccccc1)NC(=O)N(CCN)Cc1ccccc1)C(=O)N[C@H](CCCCN)C(=O)N1CCC(C#N)CC1 [Compound 35] | < 6.00 | 9.77 | 9.74 | < 6.00 | –
CC(C)C[C@@H](NC(=O)[C@@H](Cc1ccccc1)NC(=O)N(C)C(CN)c1ccccc1)C(=O)N[C@H](CCCCN)C(=O)N1CCNCC1 (stereo partly drawn) [Compound 38] | < 6.00 | 9.27 | 9.77 | < 6.00 | –
